Reference: patent publication US10533228B2, “3.beta-hydroxysteroid dehydrogenase in steroid dependent disease” (THE CLEVELAND CLINIC FOUNDATION, priority 2013, dated 2020)
Where a SMILES comes first, the peptide text is derived from it. The star is where a group is joined. Cbz = O=C(OCc1ccccc1)*

What was measured:
3βHSD1 (367N) = assay: Western blot of endogenous 3βHSD1 protein in LAPC4 after degradation inhibitor; type: cell-based, human; conditions: LAPC4, 10 μM
Description: For Western blot analysis, whole cell protein extract was harvested using RIPA buffer (Sigma-Aldrich) with protease inhibitor cocktail (Roche). […] The protein was transferred to a PVDF membrane and was detected by mouse anti-3βHSD1 (Sigma), rabbit anti-HA (Santa Cruz Biotechnology, Santa Cruz, Calif.), and mouse anti-β-actin (Sigma) antibodies. […]

3βHSD1 (367T) = assay: Western blot of endogenous 3βHSD1 protein in LNCaP after proteasome inhibitor; type: cell-based, human; conditions: 10 μM, 8 hours
Protocol: For Western blot analysis, whole cell protein extract was harvested using RIPA buffer (Sigma-Aldrich) with protease inhibitor cocktail (Roche). Protein concentration was determined by BCA Protein Assay Reagent (Thermo Scientific, Rockford, Ill.), and 20 μg protein was resolved by 8.5% SDS-PAGE. The protein was transferred to a PVDF membrane and was detected by mouse anti-3βHSD1 (Sigma), rabbit anti-HA (Santa Cruz Biotechnology, Santa Cruz, Calif.), and mouse anti-β-actin (Sigma) antibodies. To determine the role of the ERAD pathway in 3βHSD1 stability, cells were treated with Eeyarestatin (Sigma) for 6 hours before harvesting cell lysate.

[1] = tested on: polyubiquitinated 3βHSD1 (367N); assay: Anti-ubiquitin immunoprecipitation in LAPC4; type: cell-based, human; conditions: LAPC4, 10 μM; 8 hours
Protocol: Pre-cleared lysate was incubated with mouse anti-ubiquitin antibody (Santa Cruz) at 4° C. for 3 hours and followed by adding 40 μl of Protein AG UltraLink Resin (Thermo Scientific) for another hour for pull down. After extensive washing with lysis buffer, the purified proteins were eluted with 25 μl 2×SDS sample buffer and analyzed by Western blot.

[2] = tested on: polyubiquitinated 3βHSD1(367T); assay: Anti-ubiquitin immunoprecipitation in LNCaP; type: cell-based, human; conditions: 10 uM, 8 hours
3βHSD1 = assay: Lentiviral shRNA knockdown, 3βHSD1 immunoblot in LNCaP; type: cell-based, human; conditions: stable lentiviral expression
Protocol: Lentiviral vector construction, viral packaging and infection were performed as previously described. Chang et al., Proc. Natl. Acad. Sci. USA, 108, 13728-13733 (2011). Briefly, […] miR30-styled shRNA sequences (#1: 5′-[…] […]-3′ (SEQ ID NO: 9); #2: 5′-[…] […]-3′ (SEQ ID NO: 10)) against HSD3B1 were PCR amplified and cloned into the pGIPZ vector (Open Biosystems, Huntsville, Ala.) and confirmed by sequencing. Virus packaging was carried out in 293T cells by co-transfecting 10 μg each of pGIPZ, pMD2.G, and psPAX2 vector. To increase transduction efficiency, 30 mL supernatant containing lentiviral particles were collected, filtered with a 0.45 μm nitrocellulose membrane and concentrated by ultracentrifugation at 19,000 rpm for 2 hours and 20 minutes at room temperature without brake. […]
For Western blot analysis, whole cell protein extract was harvested using RIPA buffer (Sigma-Aldrich) with protease inhibitor cocktail (Roche). Protein concentration was determined by BCA Protein Assay Reagent (Thermo Scientific, Rockford, Ill.), and 20 μg protein was resolved by 8.5% SDS-PAGE. The protein was transferred to a PVDF membrane and was detected by mouse anti-3βHSD1 (Sigma), rabbit anti-HA (Santa Cruz Biotechnology, Santa Cruz, Calif.), and mouse anti-β-actin (Sigma) antibodies. […]

LNCaP xenografts = assay: LNCaP xenograft CRPC growth in orchiectomized mice with DHEA pellet; type: in vivo, mouse; conditions: orchiectomy and DHEA pellet
Protocol: Mouse xenograft studies and abiraterone acetate treatment were done as described in detail previously. Li et al., Clin Cancer Res 18, 3571-3579 (2012). Briefly, male NOD/SCID mice 6 to 8 weeks of age were obtained from the UT Southwestern Animal Resources Center, underwent surgical orchiectomy and a DHEA pellet (5 mg 90-day sustained-release) implantation and 2 days later underwent subcutaneous injection with 7×10^6 LAPC4 cells. Tumors reaching 300 mm^3 volume were treated with intraperitoneal abiraterone acetate or vehicle (n=8 mice per treatment) once daily for 5 days per week for 4 weeks. Tumors were fresh frozen upon mouse sacrifice. For the studies of mutant 3βHSD1 knockdown, LNCaP cells (7×10^6) stably expressing shHSD3B1 #1, #2 and shCTRL were subcutaneously injected with matrigel into eugonadal NOD/SCID mice (n=15 per group). Mice with tumors reaching 100 mm^3 volume underwent surgical castration and DHEA pellet implantation. Time from castration to tumor volume ≥600 mm^3 was assessed. For the comparison between wild type and mutant 3βHSD1, LAPC4 cells (7×10^6) stably expressing pLVX-Tight-Puro-HSD3B1 (367N) or pLVX-Tight-Puro-HSD3B1 (367T) were subcutaneously injected into surgically orchiectomized NOD/SCID mice supplemented with a DHEA (5 mg 90-day sustained-release) pellet. Tumor diameters were measured by digital calipers two or three times per week.

Molecule: CC1(C)C(N(O)C(=O)Nc2ccc(Cl)cc2)N(c2ccc(Cl)cc2)C(=O)N1CC(=O)N/N=C/C=C/c1ccc([N+](=O)[O-])o1 (stereo not drawn) [Eeyarestatin I]
- endogenous 3βHSD1 protein (3βHSD1 (367N)): increases endogenous 3βHSD1 protein

Molecule: CC(C)C[C@@H](C=O)NC(=O)[C@H](CC(C)C)NC(=O)[C@H](CC(C)C)NC(=O)OCc1ccccc1 [MG132] (Cbz-Leu-Leu-Leu-aldehyde)
- 3βHSD1 (367N) protein level (3βHSD1 (367N); 8 hours): reverses 3βHSD1 (367N) protein loss
- 3βHSD1 (367T) protein level (3βHSD1 (367T)): no 3βHSD1 (367T) protein increase
- polyubiquitinated 3βHSD1 (367N) protein [1]: increase in polyubiquitinated 3βHSD1 (367N) protein
- polyubiquitinated 3βHSD1(367T) protein [2]: no increase in polyubiquitinated 3βHSD1(367T) protein

B1: shHSD3B1 #1: lentiviral miR30-styled shRNA against HSD3B1 (SEQ ID NO: 9) (nucleic acid)
chain: TGCTGTTGACAGTGAGCGACCTCATACAGAAAGTGACAAGTAGTGAAGCCACAGATGTACTTGTCACTTTCTGTATGAGGCTGCCTACTGCCTCGGA
- 3βHSD1 protein expression (3βHSD1): silences 3βHSD1 protein expression
- CRPC growth (days from orchiectomy to tumor volume ≥600 mm^3) (LNCaP xenografts): blocks CRPC growth

B2: shHSD3B1 #2: lentiviral miR30-styled shRNA against HSD3B1 (SEQ ID NO: 10) (nucleic acid)
chain: TGCTGTTGACAGTGAGCGAAGAGGAAAGACCATGTGGTTTTAGTGAAGCCACAGATGTAAAACCACATGGTCTTTCCTCTGTGCCTACTGCCTCGGA
- 3βHSD1 protein expression (3βHSD1): silences 3βHSD1 protein expression
- CRPC growth (days from orchiectomy to tumor volume ≥600 mm^3) (LNCaP xenografts): blocks CRPC growth
